Measurements from ChEMBL document CHEMBL5608141, “Identification of compartment-specific drug sensitivities in CRC organoid-stroma co-cultures” (2024).

Columns and labels:
Type in all cases: functional, Homo sapiens
Design in all cases: dose or concentration left out as unconfirmed
Colon cancer organoid [1] = assay: Identification of compartment-specific drug sensitivities in O20 CRC organoid-stroma F20 CAF co-cultures. Organoid is transduced with Lucferase2-P2A-EGFP lentivirus, fibroblast with Renilla-dsRed lentivirus. Dual-Glo Luciferase assay is used to report viability data.
Colon cancer organoid [2] = assay: Identification of compartment-specific drug sensitivities in O14 CRC organoid-stroma F14 CAF co-cultures. Organoid is transduced with Lucferase2-P2A-EGFP lentivirus, fibroblast with Renilla-dsRed lentivirus. Dual-Glo Luciferase assay is used to report viability data.
Colon cancer organoid [3] = assay: Identification of compartment-specific drug sensitivities in O06 CRC organoid-stroma F06 CAF co-cultures. Organoid is transduced with Lucferase2-P2A-EGFP lentivirus, fibroblast with Renilla-dsRed lentivirus. Dual-Glo Luciferase assay is used to report viability data.
[4] = Transduced with Lucferase2-P2A-EGFP lentivirus
[5] = Transduced with Renilla-dsRed lentivirus

COc1cc(N2CCC(O)CC2)ccc1Nc1cc(Nc2ccccc2S(=O)(=O)C(C)C)c2cc[nH]c2n1
Cell Viability (Colon cancer organoid [1]; [4]): 108.341%
Cell Viability (Colon cancer organoid [1]; [5]): 84.332%
Cell Viability (Colon cancer organoid [2]; [4]): 92.4485%
Cell Viability (Colon cancer organoid [2]; [5]): 85.3579%
Cell Viability (Colon cancer organoid [3]; [4]): 85.241%
Cell Viability (Colon cancer organoid [3]; [5]): 81.2438%

CCc1cccc(CC)c1NC(=O)c1nn(C)c2c1CCc1cnc(Nc3ccc(C(=O)NC4CCN(C)CC4)cc3OC(F)(F)F)nc1-2
Cell Viability (Colon cancer organoid [1]; [4]): 94.5822%
Cell Viability (Colon cancer organoid [1]; [5]): 107.437%
Cell Viability (Colon cancer organoid [2]; [4]): 11.9525%
Cell Viability (Colon cancer organoid [2]; [5]): 117.182%
Cell Viability (Colon cancer organoid [3]; [4]): 8.756%
Cell Viability (Colon cancer organoid [3]; [5]): 150.393%

COc1cc(Nc2nccc(-c3cnn4nc(OC)ccc34)n2)cc(C(F)(F)F)c1
Cell Viability (Colon cancer organoid [1]; [4]): 11.0854%
Cell Viability (Colon cancer organoid [1]; [5]): 189.711%
Cell Viability (Colon cancer organoid [2]; [4]): 7.4245%
Cell Viability (Colon cancer organoid [2]; [5]): 53.4313%
Cell Viability (Colon cancer organoid [3]; [4]): 29.547%
Cell Viability (Colon cancer organoid [3]; [5]): 143.538%

C[C@@H]1CCNC(=O)c2cc3ccc(C(=O)Nc4nc5ccccc5n4CCCN(C)C)cc3n21
Cell Viability (Colon cancer organoid [1]; [4]): 65.8011%
Cell Viability (Colon cancer organoid [1]; [5]): 147.158%
Cell Viability (Colon cancer organoid [2]; [4]): 75.4357%
Cell Viability (Colon cancer organoid [2]; [5]): 82.3994%
Cell Viability (Colon cancer organoid [3]; [4]): 65.6776%
Cell Viability (Colon cancer organoid [3]; [5]): 63.6239%

COc1cc(C)c(Sc2cnc(NC(=O)c3ccc(CNC(C)C(C)(C)C)cc3)s2)cc1C(=O)N1CCN(C(C)=O)CC1 (centres undefined)
Cell Viability (Colon cancer organoid [1]; [4]): 91.6907%
Cell Viability (Colon cancer organoid [1]; [5]): 97.5626%
Cell Viability (Colon cancer organoid [2]; [4]): 52.0168%
Cell Viability (Colon cancer organoid [2]; [5]): 58.5352%
Cell Viability (Colon cancer organoid [3]; [4]): 97.8632%
Cell Viability (Colon cancer organoid [3]; [5]): 73.4932%

O=C(Nc1cccnc1)c1cc(-c2ccnc(F)c2)ccc1OCc1ccccc1
Cell Viability (Colon cancer organoid [1]; [4]): 125.357%
Cell Viability (Colon cancer organoid [1]; [5]): 104.766%
Cell Viability (Colon cancer organoid [2]; [4]): 142.728%
Cell Viability (Colon cancer organoid [2]; [5]): 107.033%
Cell Viability (Colon cancer organoid [3]; [4]): 87.3368%
Cell Viability (Colon cancer organoid [3]; [5]): 83.1264%

CNc1nc(Nc2cnn([C@H]3CCN(C4COC4)C[C@@H]3F)c2Cl)ncc1C(F)(F)F
Cell Viability (Colon cancer organoid [1]; [4]): 197.594%
Cell Viability (Colon cancer organoid [1]; [5]): 86.9942%
Cell Viability (Colon cancer organoid [2]; [4]): 109.423%
Cell Viability (Colon cancer organoid [2]; [5]): 94.4968%
Cell Viability (Colon cancer organoid [3]; [4]): 94.4056%
Cell Viability (Colon cancer organoid [3]; [5]): 87.0484%

COc1cc(-c2cn([C@H]3CCc4c(F)cccc4N(CC(F)(F)F)C3=O)nn2)ccc1-n1cnc(C)c1
Cell Viability (Colon cancer organoid [1]; [4]): 119.382%
Cell Viability (Colon cancer organoid [1]; [5]): 109.286%
Cell Viability (Colon cancer organoid [2]; [4]): 128.088%
Cell Viability (Colon cancer organoid [2]; [5]): 98.8677%
Cell Viability (Colon cancer organoid [3]; [4]): 62.2519%
Cell Viability (Colon cancer organoid [3]; [5]): 94.2085%

CC(C)(O)CNc1ncc(-c2ccnc(Nc3ccnc(Cl)c3)n2)c(CC2CC2)n1
Cell Viability (Colon cancer organoid [1]; [4]): 67.8279%
Cell Viability (Colon cancer organoid [1]; [5]): 172.835%
Cell Viability (Colon cancer organoid [2]; [4]): 84.1319%
Cell Viability (Colon cancer organoid [2]; [5]): 170.669%
Cell Viability (Colon cancer organoid [3]; [4]): 30.6205%
Cell Viability (Colon cancer organoid [3]; [5]): 168.017%

CCOc1cc(N2CCC(O)CC2)ccc1Nc1ncc2c(n1)N(C1CCCC1)CCC(=O)N2C
Cell Viability (Colon cancer organoid [1]; [4]): 51.7552%
Cell Viability (Colon cancer organoid [1]; [5]): 144.517%
Cell Viability (Colon cancer organoid [2]; [4]): 84.5477%
Cell Viability (Colon cancer organoid [2]; [5]): 160.888%
Cell Viability (Colon cancer organoid [3]; [4]): 80.3618%
Cell Viability (Colon cancer organoid [3]; [5]): 151.464%

Cn1cc(-c2[nH]c3cc(NC(=O)[C@H](N)C4CCCCC4)cc4c3c2C=NNC4=O)cn1
Cell Viability (Colon cancer organoid [1]; [4]): 23.2406%
Cell Viability (Colon cancer organoid [1]; [5]): 172.741%
Cell Viability (Colon cancer organoid [2]; [4]): 1.912%
Cell Viability (Colon cancer organoid [2]; [5]): 87.1489%
Cell Viability (Colon cancer organoid [3]; [4]): 9.334%
Cell Viability (Colon cancer organoid [3]; [5]): 180.436%

CCNC(=O)c1cc2c(N3CCOC[C@@H]3C)ccnc2n1C
Cell Viability (Colon cancer organoid [1]; [4]): 107.341%
Cell Viability (Colon cancer organoid [1]; [5]): 102.95%
Cell Viability (Colon cancer organoid [2]; [4]): 116.155%
Cell Viability (Colon cancer organoid [2]; [5]): 112.32%
Cell Viability (Colon cancer organoid [3]; [4]): 84.5961%
Cell Viability (Colon cancer organoid [3]; [5]): 69.3706%

O=C(Nc1ccc(-c2ccnc(Nc3ccc(N4CCOCC4)cc3)n2)cc1)[C@@H]1CCCN1
Cell Viability (Colon cancer organoid [1]; [4]): 139.273%
Cell Viability (Colon cancer organoid [1]; [5]): 76.0213%
Cell Viability (Colon cancer organoid [2]; [4]): 129.164%
Cell Viability (Colon cancer organoid [2]; [5]): 79.5845%
Cell Viability (Colon cancer organoid [3]; [4]): 100.254%
Cell Viability (Colon cancer organoid [3]; [5]): 96.014%

CCC(=O)Nc1cccc(Oc2nc(Nc3ccc(N4CCN(C)CC4)cc3OC)ncc2Cl)c1
Cell Viability (Colon cancer organoid [1]; [4]): 125.304%
Cell Viability (Colon cancer organoid [1]; [5]): 105.023%
Cell Viability (Colon cancer organoid [2]; [4]): 157.299%
Cell Viability (Colon cancer organoid [2]; [5]): 90.5023%
Cell Viability (Colon cancer organoid [3]; [4]): 92.8013%
Cell Viability (Colon cancer organoid [3]; [5]): 94.5997%

CCc1cc(Nc2nccc(-c3c(-c4ccc(OC)c(C(=O)Nc5c(F)cccc5F)c4)nc4ccccn34)n2)c(OC)cc1N1CCC(N2CCN(S(C)(=O)=O)CC2)CC1
Cell Viability (Colon cancer organoid [1]; [4]): 117.027%
Cell Viability (Colon cancer organoid [1]; [5]): 82.2783%
Cell Viability (Colon cancer organoid [2]; [4]): 103.898%
Cell Viability (Colon cancer organoid [2]; [5]): 108.534%
Cell Viability (Colon cancer organoid [3]; [4]): 86.7992%
Cell Viability (Colon cancer organoid [3]; [5]): 78.7013%

CN(C)C(=O)c1ccc(-c2cc(C(=O)N[C@@H]3CCc4ccccc43)no2)cc1O
Cell Viability (Colon cancer organoid [1]; [4]): 99.2292%
Cell Viability (Colon cancer organoid [1]; [5]): 104.475%
Cell Viability (Colon cancer organoid [2]; [4]): 90.3054%
Cell Viability (Colon cancer organoid [2]; [5]): 109.902%
Cell Viability (Colon cancer organoid [3]; [4]): 113.879%
Cell Viability (Colon cancer organoid [3]; [5]): 93.2478%

COc1cc(-c2cn([C@H]3CCc4ccccc4N(CC(F)(F)F)C3=O)nn2)ccc1-n1ccc(C)n1
Cell Viability (Colon cancer organoid [1]; [4]): 70.0794%
Cell Viability (Colon cancer organoid [1]; [5]): 119.033%
Cell Viability (Colon cancer organoid [2]; [4]): 96.3015%
Cell Viability (Colon cancer organoid [2]; [5]): 79.1491%
Cell Viability (Colon cancer organoid [3]; [4]): 66.2416%
Cell Viability (Colon cancer organoid [3]; [5]): 74.3796%

C=CC(=O)Nc1ccc2[nH]c(=O)n(C3CCN(C(=O)c4ccc(-c5nc6cc[nH]c(=O)c6cc5-c5ccccc5)cc4)CC3)c2c1
Cell Viability (Colon cancer organoid [1]; [4]): 102.668%
Cell Viability (Colon cancer organoid [1]; [5]): 80.5582%
Cell Viability (Colon cancer organoid [2]; [4]): 66.8064%
Cell Viability (Colon cancer organoid [2]; [5]): 102.36%
Cell Viability (Colon cancer organoid [3]; [4]): 100.634%
Cell Viability (Colon cancer organoid [3]; [5]): 129.997%

CN(C)C(=O)c1ccc(-c2cc(C(=O)N(C)C3CCCC3)no2)cc1O
Cell Viability (Colon cancer organoid [1]; [4]): 123.545%
Cell Viability (Colon cancer organoid [1]; [5]): 110.433%
Cell Viability (Colon cancer organoid [2]; [4]): 137.993%
Cell Viability (Colon cancer organoid [2]; [5]): 111.926%
Cell Viability (Colon cancer organoid [3]; [4]): 126.057%
Cell Viability (Colon cancer organoid [3]; [5]): 129.278%

CCN(Cc1ccc(Cl)cc1)c1ncc(C(=O)NCCCN2CCCC2=O)c(NC2CCCC2)n1
Cell Viability (Colon cancer organoid [1]; [4]): 67.2116%
Cell Viability (Colon cancer organoid [1]; [5]): 104.655%
Cell Viability (Colon cancer organoid [2]; [4]): 127.363%
Cell Viability (Colon cancer organoid [2]; [5]): 88.0275%
Cell Viability (Colon cancer organoid [3]; [4]): 93.3549%
Cell Viability (Colon cancer organoid [3]; [5]): 154.26%

CC(C)S(=O)(=O)c1ccc2nccc(Nc3ccc4scnc4c3)c2c1
Cell Viability (Colon cancer organoid [1]; [4]): 147.82%
Cell Viability (Colon cancer organoid [1]; [5]): 98.2209%
Cell Viability (Colon cancer organoid [2]; [4]): 128.948%
Cell Viability (Colon cancer organoid [2]; [5]): 98.4032%
Cell Viability (Colon cancer organoid [3]; [4]): 84.0973%
Cell Viability (Colon cancer organoid [3]; [5]): 95.5761%

c1ccc2oc(-c3csc(C4CCN(Cc5nc6ncccc6[nH]5)CC4)n3)cc2c1
Cell Viability (Colon cancer organoid [1]; [4]): 55.8704%
Cell Viability (Colon cancer organoid [1]; [5]): 105.216%
Cell Viability (Colon cancer organoid [2]; [4]): 115.362%
Cell Viability (Colon cancer organoid [2]; [5]): 96.8387%
Cell Viability (Colon cancer organoid [3]; [4]): 118.221%
Cell Viability (Colon cancer organoid [3]; [5]): 124.83%

Cc1cnc(Nc2ccc(F)cc2Cl)nc1-c1c[nH]c(C(=O)N[C@H](CO)c2cccc(Cl)c2)c1
Cell Viability (Colon cancer organoid [1]; [4]): 6.88%
Cell Viability (Colon cancer organoid [1]; [5]): 113.857%
Cell Viability (Colon cancer organoid [2]; [4]): 47.0783%
Cell Viability (Colon cancer organoid [2]; [5]): 28.0153%
Cell Viability (Colon cancer organoid [3]; [4]): 51.8597%
Cell Viability (Colon cancer organoid [3]; [5]): 63.6391%

CNC(=O)Nc1ccc(-c2nc(N3CC4CCC(C3)O4)c3cnn(C4CCC5(CC4)OCCO5)c3n2)cc1
Cell Viability (Colon cancer organoid [1]; [4]): 5.83%
Cell Viability (Colon cancer organoid [1]; [5]): 97.6391%
Cell Viability (Colon cancer organoid [2]; [4]): 29.4838%
Cell Viability (Colon cancer organoid [2]; [5]): 39.9364%
Cell Viability (Colon cancer organoid [3]; [4]): 4.885%
Cell Viability (Colon cancer organoid [3]; [5]): 48.532%
